Patent publication US7119180B2, “2-halogenated derivatives of 5-O-desosaminyl-erythronolide A, their preparation process and their antibiotic use” (Aventis Pharma S.A., priority 1998, dated 2006)

Legend:
Format in all cases: cell-based
[1] = system: S. pneumoniae 030GR20; test: Method of dilutions in liquid medium (M.I.C.); details: reading after 24 hours, 37° C.
Experimental: (§1) Method of Dilutions in Liquid Medium A series of tubes were prepared in which the same quantity of nutritive sterile medium was distributed. Increasing quantities of the product to be studied were distributed into each tube and then each tube was seeded with a bacterial strain. After incubation for twenty-four hours in an oven at 37° C., the growth inhibition was evaluated by transillumination, which allowed the minimal inhibitory concentrations (M.I.C.) to be determined, expressed in micrograms/ml. The following results were obtained: (reading after 24 hours)

[2] = system: S. epidermidis 012GO11I; test: Method of dilutions in liquid medium (M.I.C.); details: reading after 24 hours, 37° C.
Experimental: as §1

[3] = system: S. faecium 02D3HT1; test: Method of dilutions in liquid medium (M.I.C.); details: reading after 24 hours, 37° C.
Experimental: as §1

[4] = system: S. aureus 011UC4; test: Method of dilutions in liquid medium (M.I.C.); details: reading after 24 hours, 37° C.
Experimental: as §1

[5] = system: S. agalactiae 02B1HT1; test: Method of dilutions in liquid medium (M.I.C.); details: reading after 24 hours, 37° C.
Experimental: as §1

[6] = system: S. pyogenes 02A1UC1; test: Method of dilutions in liquid medium (M.I.C.); details: reading after 24 hours, 37° C.
Experimental: as §1

[7] = system: S. pneumoniae 032UC1; test: Method of dilutions in liquid medium (M.I.C.); details: reading after 24 hours, 37° C.
Experimental: as §1

[8] = system: S. mitis 02MitCB1; test: Method of dilutions in liquid medium (M.I.C.); details: reading after 24 hours, 37° C.
Experimental: as §1

[9] = system: S. agalactiae 02B1SJ1c; test: Method of dilutions in liquid medium (M.I.C.); details: reading after 24 hours, 37° C.
Experimental: as §1

[10] = system: S. aureus 011GO25I; test: Method of dilutions in liquid medium (M.I.C.); details: reading after 24 hours, 37° C.
Experimental: as §1

[11] = system: Streptococcus gr. G 02GOGR5; test: Method of dilutions in liquid medium (M.I.C.); details: reading after 24 hours, 37° C.
Experimental: as §1

[12] = system: S. faecalis 02D2UC1; test: Method of dilutions in liquid medium (M.I.C.); details: reading after 24 hours, 37° C.
Experimental: as §1

[13] = system: Haemophilus Influenzae 351CA1; test: Activity on Gram- bacterial strains
Experimental: (§2) Method of Dilutions in Liquid Medium
as §1, with “A” for “Method of Dilutions in Liquid Medium A”, “micrograms/ml.” for “micrograms/ml. The following results were obtained: (reading after 24 hours)”

[14] = system: Haemophilus Influenzae 351CB12; test: Activity on Gram- bacterial strains
Experimental: as §2
as §1, with “A” for “Method of Dilutions in Liquid Medium A”, “micrograms/ml.” for “micrograms/ml. The following results were obtained: (reading after 24 hours)”

[15] = system: Haemophilus Influenzae 351HT3; test: Activity on Gram- bacterial strains
Experimental: as §2
as §1, with “A” for “Method of Dilutions in Liquid Medium A”, “micrograms/ml.” for “micrograms/ml. The following results were obtained: (reading after 24 hours)”

Molecule: (3aS,4R,7S,9R,10R,11R,13R,15R,15aR,18S)-4-ethyl-7-fluoro-3a,4,10,11,12,13,15,15a-octahydro-18-(hydroxymethyl)-11-methoxy-3a,7,9,11,13,15-hexamethyl-10-[[3,4,6-trideoxy-3-(dimethylamino)-beta-D-xylo-hexopyranosyl]oxy]-14,1-(nitriloethano)-2H-oxacyclotetradecino[4,3-d]oxazole-2,6,8(7H,9H)-trione [Example 3]
- minimal inhibitory concentrations (M.I.C.) [1]: 0.02 micrograms/ml
- minimal inhibitory concentrations (M.I.C.) [2]: 0.150 micrograms/ml
- minimal inhibitory concentrations (M.I.C.) [3]: 0.02 micrograms/ml
- minimal inhibitory concentrations (M.I.C.) ([4]; S. aureus 011UC4 + 50% serum): 0.040 micrograms/ml
- minimal inhibitory concentrations (M.I.C.) ([4]; S. aureus 011UC4): 0.040 micrograms/ml
- minimal inhibitory concentrations (M.I.C.) [5]: 0.02 micrograms/ml
- minimal inhibitory concentrations (M.I.C.) [6]: # 0.02 micrograms/ml
- minimal inhibitory concentrations (M.I.C.) [7]: 0.02 micrograms/ml
- minimal inhibitory concentrations (M.I.C.) [8]: 0.02 micrograms/ml
- minimal inhibitory concentrations (M.I.C.) [9]: 0.02 micrograms/ml
- minimal inhibitory concentrations (M.I.C.) [10]: 0.040 micrograms/ml
- minimal inhibitory concentrations (M.I.C.) [11]: 0.02 micrograms/ml
- minimal inhibitory concentrations (M.I.C.) [12]: 0.02 micrograms/ml

Molecule: CC[C@H]1OC(=O)[C@@](C)(F)C(=O)[C@H](C)[C@@H](O[C@@H]2O[C@H](C)C[C@H](N(C)C)[C@H]2O)[C@](C)(OC)C[C@@H](C)C2=NCCN3C(=O)O[C@@]1(C)[C@H]3[C@H]2C (relative stereo) [Example 1, [3 as-(3aR*,4S*,7R*,9S*,10S*,11S*,13S*,15S*,15aS*)]-4-ethyl-7-fluoro-3a,4,10,11,12,13,15,15a-octahydro-11-methoxy-3a,7,9,11,13,15-hexamethyl-10-[[3,4,6-trideoxy-3-(dimethyl-amino)-beta-D-xylo-hexopyranosyl]oxy]-14,1-(nitriloethano)-2H-oxacyclotetradecino[4,3-d]oxazole-2,6,8(9H)-trione]
- activity on Gram- bacterial strain [13]: useful activity
- activity on Gram- bacterial strain [14]: useful activity
- activity on Gram- bacterial strain [15]: useful activity
- minimal inhibitory concentrations (M.I.C.) [1]: # 0.02 micrograms/ml
- minimal inhibitory concentrations (M.I.C.) [2]: 0.300 micrograms/ml
- minimal inhibitory concentrations (M.I.C.) [3]: # 0.02 micrograms/ml
- minimal inhibitory concentrations (M.I.C.) ([4]; S. aureus 011UC4 + 50% serum): 0.040 micrograms/ml
- minimal inhibitory concentrations (M.I.C.) ([4]; S. aureus 011UC4): 0.150 micrograms/ml
- minimal inhibitory concentrations (M.I.C.) [5]: # 0.02 micrograms/ml
- minimal inhibitory concentrations (M.I.C.) [6]: 0.040 micrograms/ml
- minimal inhibitory concentrations (M.I.C.) [7]: 0.080 micrograms/ml
- minimal inhibitory concentrations (M.I.C.) [8]: 0.040 micrograms/ml
- minimal inhibitory concentrations (M.I.C.) [9]: 1.200 micrograms/ml
- minimal inhibitory concentrations (M.I.C.) [10]: 0.600 micrograms/ml
- minimal inhibitory concentrations (M.I.C.) [11]: 0.040 micrograms/ml
- minimal inhibitory concentrations (M.I.C.) [12]: 0.040 micrograms/ml
